Results from patent US20260022114A1, “N-(5-SUBSTITUTED-[(1,3,4-THIADIAZOLYL) OR (1,3-THIAZOLYL)](SUBSTITUTED)CARBOXAMIDE COMPOUNDS, PHARMACEUTICAL COMPOSITIONS, AND METHODS OF PREPARING THE AMIDE COMPOUNDS AND OF THEIR USE” (Repare Therapeutics Inc., priority 2022, published 2026).

Target: PolQ ATPase enzyme (1-894) (Homo sapiens (Human), UniProt O75417)
Experiment: Polθ ATPase enzymatic assay (0.5 nM enzyme concentration), ADP-Glo
Format: biochemical
Conditions: 0.5 nM PolQ ATPase enzyme (1-894); average IC50
Protocol: PolQ ATPase enzyme (1-894) at 0.5 nM is incubated with a 10-point concentration response of inhibitors for 15 min at rt in the following buffer: 50 mM Tris Cl pH 7.5, 10% glycerol, 5 mM DTT, 10 mM MgCl2, 0.1 mg/ml BSA. Following pre-incubation with inhibitors, DNA (Fork C) at 20 nM and ATP at 100 μM are added to start the reaction. Enzymatic reaction proceeds at rt for 180 min. ATP consumption is measured using the ADP-Glo assay from Promega. Luminescence is read on the Envision and IC50 are determined using the variable slope 4-parameters equation.
Oligos are annealed by heating at 95° C. for 5 min in the following buffer (10 mM Tris-HCl PH7.5, 50 mM NaCl, 1 mM EDTA) and cooled to rt. […]

Chain of PolQ ATPase enzyme (1-894) (O75417 1-894): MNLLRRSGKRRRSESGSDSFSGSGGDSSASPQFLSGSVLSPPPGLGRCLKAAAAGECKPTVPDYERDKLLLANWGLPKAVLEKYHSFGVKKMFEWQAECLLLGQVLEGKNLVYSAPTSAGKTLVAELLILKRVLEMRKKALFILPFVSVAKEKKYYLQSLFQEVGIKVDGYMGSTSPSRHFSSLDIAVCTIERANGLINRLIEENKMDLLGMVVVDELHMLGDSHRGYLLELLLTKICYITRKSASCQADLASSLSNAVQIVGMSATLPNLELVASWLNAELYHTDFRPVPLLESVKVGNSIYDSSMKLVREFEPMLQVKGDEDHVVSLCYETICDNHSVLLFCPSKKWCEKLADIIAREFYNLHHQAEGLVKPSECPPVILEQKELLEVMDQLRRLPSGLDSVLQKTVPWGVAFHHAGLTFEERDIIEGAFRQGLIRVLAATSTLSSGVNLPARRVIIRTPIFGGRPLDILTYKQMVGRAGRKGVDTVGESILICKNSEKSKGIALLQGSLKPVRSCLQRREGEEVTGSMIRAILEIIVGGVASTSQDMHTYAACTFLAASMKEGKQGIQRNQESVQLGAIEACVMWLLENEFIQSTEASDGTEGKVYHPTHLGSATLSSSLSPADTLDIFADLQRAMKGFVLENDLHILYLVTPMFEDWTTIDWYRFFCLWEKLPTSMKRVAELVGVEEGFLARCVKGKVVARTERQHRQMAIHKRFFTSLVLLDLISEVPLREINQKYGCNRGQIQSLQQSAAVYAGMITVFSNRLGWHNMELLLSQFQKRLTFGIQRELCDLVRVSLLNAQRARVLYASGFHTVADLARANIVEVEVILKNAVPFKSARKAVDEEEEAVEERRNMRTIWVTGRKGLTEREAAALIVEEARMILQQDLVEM

IC50 [nM] | SMILES
0.29 | COc1cnc(C(F)F)cc1-c1cc(C#CCN2CCOCC2=O)ncc1C(=O)Nc1nnc(C#CC2CC2)s1 [Compound 542]
0.44 | COc1cnc(C(F)F)cc1-c1cc(C#CC(C)(C)N2CCOCC2)ncc1C(=O)Nc1nnc(C#CC2CC2)s1 [Compound 528]
33.3 | COc1cnc(C(F)F)cc1-c1cc(-n2ccc(C)cc2=O)ncc1C(=O)Nc1nnc([C@H]2C[C@@H]2C#N)s1 (racemic) [Compound 539]
0.27 | COc1cnc(C(F)F)cc1-c1cc(-n2ccncc2=O)ncc1C(=O)Nc1nnc(C#CC2CC2)s1 [Compound 531]
0.47 | C=C[C@H]1C[C@@H]1c1nnc(NC(=O)c2cnc(-n3ccc(C)cc3=O)cc2-c2cc(C(F)F)ncc2OC)s1 (racemic) [Compound 585]
< 0.25 | COc1cnc(C(F)F)cc1-c1cc(C#CCC2CCNC2=O)ncc1C(=O)Nc1nnc(C#CC2CC2)s1 (racemic) [Compound 570]
0.25 | COc1cnc(C(F)F)cc1-c1cc(-n2ccc(C)cc2=O)ncc1C(=O)Nc1nnc(C2C[C@@H]2c2cscn2)s1 (mixture of isomers) [Compound 635]
0.73 | COc1cnc(C(F)F)cc1-c1cc(-n2ccc(N3CCN(C)CC3)cc2=O)ncc1C(=O)Nc1nnc(C#CC2CC2)s1 [Compound 535]
1.7 | COc1cnc(C(F)F)cc1-c1cc(-n2ccc(B(O)O)cc2=O)ncc1C(=O)Nc1nnc(C#CC2CC2)s1 [Compound 509]
3.2 | COc1cnc(C(F)F)cc1-c1cc(-c2ccc(C)cc2)ncc1C(=O)Nc1nnc(C#CC2CC2)s1 [Compound 513]
2.4 | COc1cnc(C(F)F)cc1-c1cc(N2C[C@@H](C)OCC2=O)ncc1C(=O)Nc1nnc(C#CC2CC2)s1 [Compound 502]
1.9 | COc1cnc(C(F)F)cc1-c1cc(-n2ccc(C)cc2=O)ncc1C(=O)Nc1nnc([C@H]2C[C@@H]2F)s1 [Compound 544]
1.7 | C#C[C@@H]1CC1c1nnc(NC(=O)c2cnc(-n3ccc(C)cc3=O)cc2-c2cc(C(F)F)ncc2OC)s1 (single isomer, unassigned) [Compound 480]
0.47 | COc1cnc(C(F)F)cc1-c1cc(-n2cc(C)ccc2=O)ncc1C(=O)Nc1nnc([C@H]2C[C@@H]2C(F)(F)F)s1 [Compound 551]
4.6 | C#C[C@H]1CC1c1nnc(NC(=O)c2ccc(-c3nnc(C)o3)cc2-c2cc(C(F)F)ncc2OC)s1 (mixture of isomers) [Compound 373]
25 | COc1cnc(C(F)F)cc1-c1cc(-n2ccc(C)cc2=O)ncc1C(=O)Nc1nnc(COC(C)(C)C)s1 [Compound 578]
0.73 | COc1cnc(C(F)(F)F)nc1-c1cc(CC#N)ccc1C(=O)Nc1nnc(C#CC2CC2)s1 [Compound 482]
< 0.25 | COc1cnc(C(F)F)cc1-c1cc(-n2ccc(C)cc2=O)ncc1C(=O)Nc1nnc([C@H]2C[C@@H]2C(F)F)s1 [Compound 623]
< 0.25 | COc1cnc(C(F)F)cc1-c1cc(C#CCNCC(F)(F)F)ncc1C(=O)Nc1nnc(C#CC2CC2)s1 [Compound 558]
15 | COc1cnc(C(F)F)cc1-c1cc(N2CCCCS2(=O)=O)ncc1C(=O)Nc1nnc(C#CC2CC2)s1 [Compound 521]

IC50 [nM] | SMILES
2.7 | COc1cnc(C(F)F)cc1-c1cc(N2CCN(CC(F)(F)F)C3(CC3)C2=O)ncc1C(=O)Nc1nnc(C#CC2CC2)s1 [Compound 515]
1.9 | COc1cnc(C(F)F)cc1-c1cc(N2CCN(C)CC2=O)ccc1C(=O)Nc1ncc(C#CC2CC2)s1 [Compound 217]
< 0.25 | C#C[C@H]1CC1c1nnc(NC(=O)c2cnc(-n3ccc(C)cc3=O)cc2-c2cc(Cl)ncc2OC)s1 (single isomer, unassigned) [Compound 590]
7.4 | Cn1ccc(C2C=C(c3cc(C(F)(F)F)ncc3Cl)C(C(=O)Nc3ncc(C#CC4CC4)s3)=CC2=O)n1 (stereo not shown) [Compound 479]
1.5 | COc1cnc(C(F)F)cc1-c1cc(C#CC(C)(C)N2CCN(C)CC2)ncc1C(=O)Nc1nnc(C#CC2CC2)s1 [Compound 549]
21 | COc1cnc(C(F)F)cc1-c1cc(C#CCn2cc(C)cn2)ncc1C(=O)Nc1nnc(C#CC2CC2)s1 [Compound 599]
1.1 | COc1cnc(C(F)F)cc1-c1cc(-n2ccc(OC3CCN(C)C3)cc2=O)ncc1C(=O)Nc1ncc(C#CC2CC2)s1 (racemic) [Compound 615]
1 | C#C[C@H]1CC1c1nnc(NC(=O)c2cnc(-n3ccc(OC)cc3=O)cc2-c2cc(C(F)F)ncc2OC)s1 (single isomer, unassigned) [Compound 629]
29 | COc1cnc(C(F)F)cc1-c1cc(-n2ccc(C)cc2=O)ncc1C(=O)Nc1nnc(C(C)(C)OC)s1 [Compound 576]
0.42 | COCCC#Cc1cc(-c2cc(C(F)F)ncc2OC)c(C(=O)Nc2nnc([C@H]3C[C@@H]3C)s2)cn1 (racemic) [Compound 625]
< 0.25 | C#C[C@H]1C[C@@H]1c1nnc(NC(=O)c2cnc(-n3cccc(C)c3=O)cc2-c2cc(C(F)F)ncc2OC)s1 [Compound 547]
0.39 | COc1cnc(C(F)F)cc1-c1cc(N2CCN(C(=O)C(C)(C)C)C3(CC3)C2=O)ncc1C(=O)Nc1nnc(C#CC2CC2)s1 [Compound 516]
< 0.25 | COC(=O)c1ccn(-c2cc(-c3cc(C(F)F)ncc3OC)c(C(=O)Nc3nnc(C#CC4CC4)s3)cn2)c(=O)c1 [Compound 496]
3.6 | C=C1CC(c2nnc(NC(=O)c3cnc(-n4ccc(C)cc4=O)cc3-c3cc(C(F)F)ncc3OC)s2)C1 [Compound 597]
< 0.25 | COc1cnc(C(F)F)cc1-c1cc(C#CC2(N)CC2)ncc1C(=O)Nc1nnc(C#CC2CC2)s1 [Compound 554]
0.34 | COc1cnc(C(F)F)cc1-c1cc(-n2ccc(C)cc2=O)ncc1C(=O)Nc1nnc([C@H]2C[C@@H]2C2CC2)s1 (racemic) [Compound 580]
> 100 | COc1cnc(C(F)F)cc1-c1nc(-c2nnc(C)o2)ccc1C(=O)Nc1ncc(C#CC2CC2)s1 [Compound 392]
< 0.25 | COc1cnc(C(F)F)cc1-c1cc(C#CCN(C)C)ncc1C(=O)Nc1nnc(C#CC2CC2)s1 [Compound 628]
0.93 | COc1cnc(Cl)cc1-c1cnccc1C(=O)Nc1nnc(C2C[C@H]2c2ccc(C#N)c(C)c2)s1 (stereo partly shown) [Compound 287]
0.76 | COc1ccc(C(F)(F)F)cc1-c1cnccc1C(=O)Nc1nnc(C2C[C@H]2c2ccc(C#N)cc2)s1 (stereo partly shown) [Compound 30]

IC50 [nM] | SMILES
0.75 | C#C[C@H]1CC1c1nnc(NC(=O)c2cnc(N3CCOC4(CC4)C3=O)cc2-c2cc(C(F)F)ncc2OC)s1 (single isomer, unassigned) [Compound 588]
< 0.25 | COc1cnc(C(F)F)cc1-c1cc(C#CCN2CCCC2=O)ncc1C(=O)Nc1nnc([C@H]2C[C@@H]2c2cscn2)s1 (racemic) [Compound 641]
51 | COc1cnc(C(F)F)cc1-c1cc(C=C=CN2CCOCC2=O)ncc1C(=O)Nc1nnc(C#CC2CC2)s1 [Compound 543]
< 0.25 | C#C[C@H]1C[C@@H]1c1nnc(NC(=O)c2cnc(-n3cc(C)ccc3=O)cc2-c2cc(C(F)F)ncc2OC)s1 [Compound 546]
< 0.25 | CC#C[C@H]1CC1c1nnc(NC(=O)c2cnc(-n3cccc(F)c3=O)cc2-c2cc(C(F)F)ncc2OC)s1 (mixture of isomers) [Compound 638]
1.1 | C#C[C@H]1C[C@@H]1c1nnc(NC(=O)c2cnc(N3CCN(C)C4(CC4)C3=O)cc2-c2cc(C(F)F)ncc2OC)s1 [Compound 574]
< 0.25 | COc1cnc(C(F)F)cc1-c1cc(N2CC3CC(C3)C2=O)ncc1C(=O)Nc1nnc(C#CC2CC2)s1 (racemic) [Compound 381]
1 | C#C[C@H]1C[C@@H]1c1nnc(NC(=O)c2cnc(C#CCN3CCOCC3)cc2-c2cc(C(F)F)ncc2OC)s1 [Compound 573]
0.35 | COc1cnc(C(F)F)cc1-c1cc(-n2ccc(N3CC4(COC4)C3)cc2=O)ncc1C(=O)Nc1nnc(C#CC2CC2)s1 [Compound 613]
< 0.25 | COc1cnc(C(F)F)cc1-c1cc(-n2ccc(C)cc2=O)ncc1C(=O)Nc1nnc([C@H]2C[C@@H]2c2ccc(C#N)cc2)s1 [Compound 563]
0.45 | COc1cnc(C(F)F)cc1-c1cc(-n2cccc(C)c2=O)ncc1C(=O)Nc1nnc([C@H]2C[C@@H]2C(F)(F)F)s1 [Compound 552]
6.3 | COc1cnc(C(F)F)cc1-c1cc(-n2ccc(C)cc2=O)ncc1C(=O)Nc1nnc(COc2cnn(C)c2)s1 [Compound 621]
< 0.25 | C#C[C@H]1C[C@@H]1c1nnc(NC(=O)c2cnc(Oc3cc(Cl)ccn3)cc2-c2cc(C(F)F)ncc2OC)s1 [Compound 577]
< 0.25 | COc1cnc(C(F)F)cc1-c1cc(C2CC(C)CCC2=O)ncc1C(=O)Nc1nnc(C#CC2CC2)s1 (racemic) [Compound 389]
3.1 | COc1cnc(C(F)F)cc1-c1cc(C#CCN2CCOCC2)ncc1C(=O)Nc1nnc([C@H]2C[C@@H]2C(F)(F)F)s1 [Compound 609]
0.55 | COc1cnc(C(F)F)cc1-c1cc(C#CCCN2CCOCC2)ncc1C(=O)Nc1nnc(C#CC2CC2)s1 [Compound 541]
< 0.25 | C#C[C@H]1C[C@@H]1c1nnc(NC(=O)c2cnc(-n3cccc(Cl)c3=O)cc2-c2cc(C(F)F)ncc2OC)s1 [Compound 591]
1.4 | C#Cc1nnc(NC(=O)c2cnc(-n3ccc(C)cc3=O)cc2-c2cc(C(F)F)ncc2OC)s1 [Compound 518]
0.4 | COc1cnc(C(F)F)cc1-c1cc(-n2ccc(N(C)C3COC3)cc2=O)ncc1C(=O)Nc1nnc(C#CC2CC2)s1 [Compound 614]
0.95 | COc1cnc(C(F)F)cc1-c1cc(-n2ccc(C)cc2=O)ncc1C(=O)Nc1nnc(C2C[C@@H]2C2CCCO2)s1 (mixture of isomers) [Compound 633]

SMILES | IC50 [nM]
COc1cnc(C(F)F)cc1-c1cc(-n2cc(C)c(C)cc2=O)ncc1C(=O)Nc1nnc(C#CC2CC2)s1 [Compound 476] | < 0.25
